# From patent publication US11655258B2, “Heterocycle derivatives as pesticides” (BAYER AKTIENGESELLSCHAFT, priority 2017, dated 2023)
# How the values were obtained:
# [1] = tested on: Lucilia cuprina; experiment: Lucilia cuprina test; format: in vivo; details: application rate 100 ppm, L1 larvae, after 2 days
# Protocol: Lucilia cuprina Test • Solvent: dimethyl sulfoxide
# (§1) To produce a suitable active compound formulation, 10 mg of active compound are mixed with 0.5 ml of dimethyl sulfoxide, and the concentrate is diluted with water to the desired concentration.
# About 20 L1 larvae of the Australian sheep blowfly (Lucilia cuprina) are transferred into a test vessel containing minced horsemeat and the active compound formulation of the desired concentration.
# After 2 days, the kill in % is determined. 100% means that all the larvae have been killed; 0% means that no larvae have been killed.
# [2] = tested on: Aphis gossypii; experiment: Aphis gossypii spray test (APHIGO); format: in vivo; details: 144 h, 6 dat, read-out: % efficacy
# Protocol: Aphis gossypii Spray Test (APHIGO) • Solvent: 14 parts by weight of dimethylformamide • Emulsifier: alkylaryl polyglycol ether
# (§2) To produce a suitable active compound preparation, 1 part by weight of active compound is dissolved using the stated parts by weight of solvent and made up with water containing an emulsifier concentration of 1000 ppm until the desired concentration is attained. To produce further test concentrations, the formulation is diluted with emulsifier-containing water. If the addition of ammonium salts or/and penetrants is required, these are each added in a concentration of 1000 ppm to the formulation solution.
# Cotton plants (Gossypium hirsutum) heavily infested by the cotton aphid (Aphis gossypii) are sprayed with an active compound formulation of the desired concentration.
# After the desired time, the kill in % is determined. 100% means that all the aphids have been killed; 0% means that no aphids have been killed.
# [3] = tested on: Myzus persicae; experiment: Myzus persicae oral test; format: in vivo; details: 120 h, application rate 4 ppm, after 5 days, read-out: efficacy
# Protocol: Myzus persicae Oral Test • Solvent: 100 parts by weight of acetone
# To produce a suitable preparation of active compound, 1 part by weight of active compound is dissolved using the specified parts by weight of solvent and made up with water until the desired concentration is attained.
# 50 μl of the active compound preparation are transferred into microtitre plates and made up to a final volume of 200 μl with 150 μl of IPL41 insect medium (33%+15% sugar). Subsequently, the plates are sealed with parafilm, which a mixed population of green peach aphids (Myzus persicae) within a second microtitre plate is able to puncture and imbibe the solution through.
# (§3) After 5 days, the efficacy in % is determined. 100% means that all the aphids have been killed; 0% means that no aphids have been killed.
# [4] = tested on: Spodoptera frugiperda; experiment: Spodoptera frugiperda spray test; format: in vivo; details: application rate 100 g/ha, after 7 days
# Protocol: Spodoptera frugiperda—Spray Test • Solvent: 78.0 parts by weight of acetone • 1.5 parts by weight of dimethylformamide • Emulsifier: alkylaryl polyglycol ether
# as §2, with “water.” for “water. If the addition of ammonium salts or/and penetrants is required, these are each added in a concentration of 1000 ppm to the formulation solution.”
# Leaf discs of maize (Zea mays) are sprayed with an active compound formulation of the desired concentration and, after drying, populated with caterpillars of the fall armyworm (Spodoptera frugiperda).
# After 7 days, the efficacy in % is determined. 100% means that all the caterpillars have been killed; 0% means that no caterpillar has been killed.
# [5] = tested on: Myzus persicae; experiment: Myzus persicae drench test (MYZUPE D), savoy cabbage; format: in vivo; details: soil, 240 h, 10 dat, read-out: % efficacy
# Protocol: Myzus persicae—Drench Test (MYZUPE D) • Solvent: 7 parts by weight of dimethylformamide • Emulsifier: 2 parts by weight of alkylaryl polyglycol ether
# To produce a suitable active compound preparation, 1 part by weight of active compound is mixed with the specified amounts of solvent and emulsifier, and the concentrate is diluted with water to the desired concentration, it being necessary to include the volume of soil which is drenched in the calculation. It should be ensured that a concentration of 40 ppm of emulsifier in the soil is not exceeded. To produce further test concentrations, water is used for dilution.
# Savoy cabbage (Brassica oleracea) in pots with soil and infested by all stages of the green peach aphid (Myzus persicae) is watered with an active compound preparation of the desired concentration.
# After the desired period of time, the efficacy in % is determined. 100% means that all the aphids have been killed; 0% means that no aphids have been killed.
# [6] = tested on: Myzus persicae; experiment: Myzus persicae spray test (MYZUPE S), bell pepper plants; format: in vivo; details: 144 h, 6 dat, read-out: % efficacy
# Protocol: Myzus persicae—Spray Test (MYZUPE S) • Solvent: 14 parts by weight of dimethylformamide • Emulsifier: alkylaryl polyglycol ether
# as §2
# Bell pepper plants (Capsicum annuum) severely infested with the green peach aphid (Myzus persicae) are treated by spraying with the active compound formulation in the desired concentration.
# After the desired time, the kill in % is determined. 100% means that all the animals have been killed; 0% means that no animals have been killed.
# [7] = tested on: Ctenocephalides felis; experiment: Ctenocephalides felis in vitro contact test with adult cat fleas; format: in vivo; details: application rate 5 μg/cm^2 (=500 g of ai/ha), after 48 h
# Protocol: Ctenocephalides felis—In Vitro Contact Tests with Adult Cat Fleas
# (§4) For the coating of the test tubes, 9 mg of active compound are first dissolved in 1 ml of acetone p.a. and then diluted to the desired concentration with acetone p.a. 250 μl of the solution are distributed homogeneously on the inner walls and the base of a 25 ml glass tube by turning and rocking on an orbital shaker (rocking rotation at 30 rpm for 2 h). With 900 ppm of active compound solution and internal surface area 44.7 cm^2, given homogeneous distribution, an area-based dose of 5 μg/cm^2 is achieved.
# After the solvent has evaporated off, the tubes are populated with 5-10 adult cat fleas (Ctenocephalides felis), sealed with a perforated plastic lid and incubated in a horizontal position at room temperature and ambient humidity. After 48 h, efficacy is determined. To this end, the tubes are stood upright and the fleas are knocked to the base of the tube. Fleas which remain motionless at the base or move in an uncoordinated manner are considered to be dead or moribund.
# 100% efficacy means that all the fleas were dead or moribund. 0% efficacy means that no fleas were harmed.
# [8] = log P by HPLC on reversed-phase column (EEC Directive 79/831 Annex V.A8); format: physicochemical; details: reversed-phase HPLC column (C18); pH 7.8, 0.001 molar aqueous ammonium bicarbonate/acetonitrile, 55° C.; read-out: log P (neutral)
# Protocol: The log P values are measured according to EEC Directive 79/831 Annex V.A8 by HPLC (high-performance liquid chromatography) on a reversed-phase column (C 18). Temperature: 55° C.
# The LC-MS determination in the neutral range is effected at pH 7.8 with 0.001 molar aqueous ammonium bicarbonate solution and acetonitrile as mobile phases; linear gradient from 10% acetonitrile to 95% acetonitrile. Called log P (neutral) in the table.
# Calibration is carried out using unbranched alkan-2-ones (having 3 to 16 carbon atoms) with known Log P values (Log P values determined on the basis of the retention times by linear interpolation between two successive alkanones).
# [9] = tested on: Nilaparvata lugens; experiment: Nilaparvata lugens spray test (NILALU); format: in vivo; details: 96 h, 500 g/ha, 4 dat, read-out: % efficacy
# Protocol: Nilaparvata lugens—Spray Test (NILALU) • Solvent: 52.5 parts by weight of acetone • 7 parts by weight of dimethylformamide • Emulsifier: alkylaryl polyglycol ether
# as §2
# Rice plants (Oryza sativa) are sprayed with an active ingredient formulation of the desired concentration and then populated with larvae of the brown planthopper (Nilaparvata lugens).
# After the desired period of time, the efficacy in % is determined. 100% means that all of the planthoppers have been killed; 0% means that none of the planthoppers have been killed.
# [10] = tested on: Ctenocephalides felis; experiment: Ctenocephalides felis oral test; format: in vivo; details: application rate 100 ppm in citrated cattle blood, after 2 days
# Protocol: Ctenocephalides felis—Oral Test • Solvent: dimethyl sulfoxide
# To produce a suitable active compound formulation, 10 mg of active compound are mixed with 0.5 ml of dimethyl sulfoxide. Dilution with citrated cattle blood gives the desired concentration.
# About 20 unfed adult cat fleas (Ctenocephalides felis) are placed into a chamber which is closed at the top and bottom with gauze. A metal cylinder whose bottom end is closed with parafilm is placed onto the chamber. The cylinder contains the blood/active compound formulation, which can be imbibed by the fleas through the parafilm membrane.
# After 2 days, the kill in % is determined. 100% means that all of the fleas have been killed; 0% means that none of the fleas have been killed.
# [11] = tested on: Phaedon cochleariae; experiment: Phaedon cochleariae spray test; format: in vivo; details: 168 h, after 7 days, read-out: efficacy; for pest or weed control at 20 g/ha: application rate 20 g/ha; for pest or weed control at 100 g/ha: application rate 100 g/ha
# Protocol: Phaedon cochleariae—Spray Test • Solvent: 78.0 parts by weight of acetone • 1.5 parts by weight of dimethylformamide • Emulsifier: alkylaryl polyglycol ether
# as §2, with “water.” for “water. If the addition of ammonium salts or/and penetrants is required, these are each added in a concentration of 1000 ppm to the formulation solution.”
# Discs of Chinese cabbage leaves (Brassica pekinensis) are sprayed with an active compound formulation of the desired concentration and, after drying, populated with larvae of the mustard beetle (Phaedon cochleariae).
# After 7 days, the efficacy in % is determined. 100% means that all the beetle larvae have been killed; 0% means that no beetle larvae have been killed.
# [12] = tested on: Boophilus microplus; experiment: Boophilus microplus injection test; format: in vivo; details: application rate 20 μg/animal, laying of fertile eggs after 7 days
# Protocol: Boophilus microplus Injection Test • Solvent: dimethyl sulfoxide
# To produce a suitable active compound formulation, 10 mg of active compound are mixed with 0.5 ml of solvent and the concentrate is diluted to the desired concentration with solvent.
# 1 μl of the active compound solution is injected into the abdomen of 5 engorged adult female cattle ticks (Boophilus microplus). The animals are transferred into dishes and kept in a climate-controlled room.
# Efficacy is assessed after 7 days by laying of fertile eggs. Eggs which are not visibly fertile are stored in a climate-controlled cabinet until the larvae hatch after about 42 days. An efficacy of 100% means that none of the ticks has laid any fertile eggs; 0% means that all the eggs are fertile.
# [13] = tested on: Rhipicephalus sanguineus; experiment: Rhipicephalus sanguineus in vitro contact test with adult brown dog ticks; format: in vivo; details: application rate 1 μg/cm^2 (=100 g of ai/ha), after 48 h
# Protocol: Rhipicephalus sanguineus—In Vitro Contact Tests with Adult Brown Doe Ticks
# as §4
# After the solvent has evaporated off, the tubes are populated with 5-10 adult dog ticks (Rhipicephalus sanguineus), sealed with a perforated plastic lid and incubated in a horizontal position in the dark at room temperature and ambient humidity. After 48 h, efficacy is determined. To this end, the ticks are knocked to the base of the tube and incubated on a hotplate at 45-50° C. for not more than 5 min. Ticks which remain motionless on the base or move in such an uncoordinated manner that they are unable to deliberately avoid the heat by climbing upwards are considered to be dead or moribund.
# An efficacy of 100% means that all the ticks were dead or moribund. 0% efficacy means that none of the ticks were harmed.
# [14] = tested on: Myzus persicae; experiment: Myzus persicae spray test (Chinese cabbage leaf discs); format: in vivo; details: foliar, 120 h, application rate 100 g/ha, after 5 days, read-out: efficacy
# Protocol: Myzus persicae Spray Test • Solvent: 78 parts by weight of acetone • 1.5 parts by weight of dimethylformamide • Emulsifier: alkylaryl polyglycol ether
# as §2, with “water.” for “water. If the addition of ammonium salts or/and penetrants is required, these are each added in a concentration of 1000 ppm to the formulation solution.”
# Discs of Chinese cabbage leaves (Brassica pekinensis) infested by all stages of the green peach aphid (Myzus persicae) are sprayed with an active compound formulation of the desired concentration.
# as §3
# [15] = tested on: Musca domestica; experiment: Musca domestica test; format: in vivo; details: application rate 100 ppm, adult houseflies, after 2 days
# Protocol: Musca domestica Test • Solvent: dimethyl sulfoxide
# as §1
# Vessels containing a sponge treated with sugar solution and the desired concentration of active compound formulation are populated with 10 adult houseflies (Musca domestica).
# After 2 days, the kill in % is determined. 100% means that all of the flies have been killed; 0% means that none of the flies have been killed.
chromatographic logP [8],SMILES,efficacy (kill) [1],Emax at 20 ppm [2],pest or weed control at 4 ppm [3],efficacy [4],Emax at 20 ppm [5],Emax at 20 ppm [6],efficacy [7],Emax at 500 g/ha [9],efficacy (kill) [10],pest or weed control at 20 g/ha [11],pest or weed control at 100 g/ha [11],efficacy [12],efficacy [13],pest or weed control at 100 g/ha [14],efficacy (kill) [15]
2.41,CCS(=O)(=O)c1c(-c2nc3ccc(C(F)(F)F)cn3n2)nc2cc(C(F)(F)F)ccn12 [Example I-01],100%,99%,100%,100%,90%,95%,100%,80%,100%,100%,100%,,,,
,CCS(=O)(=O)c1c(-c2nc3ccc(C(F)(F)F)cn3n2)nc2cc(NC(=O)C3CC3)ccn12 [Example I-09],,,100%,,,,,,95%,,,100%,,,
,CCS(=O)(=O)c1cc2ccccc2nc1-c1nc2cc(C(F)(F)F)ncn2n1 [Example I-05],100%,,100%,100%,,,100%,,95%,100%,100%,,80%,90%,
,CCS(=O)(=O)c1c(-c2nc3ccc(C(F)(F)F)cn3n2)nc2cc(I)ccn12 [Example I-12],100%,,90%,100%,,,100%,,,100%,100%,,,,90%
